Measured values: patent US20230203081A1, “LINCOSAMIDE ANTIBIOTICS AND USES THEREOF” (President and Fellows of Harvard College, priority 2020, published 2023)
≈ marks a conversion by molar mass, not a printed value.

Key:
[1] = system: S. aureus MP-549 msrA; test: microbe, parasite or virus in culture; format: cell-based; settings: Staphylococcus aureus, MP549MSRA
Method in brief: (§1)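 Inoculum for broth microdilution was 5×10^5 CFU/mL final, prepared from overnight 35° C blood-agar subcultures (separate handling for streptococcal and anaerobic strains); MICs read by CLSI broth microdilution or agar dilution.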

[2] = system: broad panel of different clinical isolates; test: microbe, parasite or virus in culture; format: cell-based
Method in brief: as §1

CCC[C@@H]1C[C@@H](C(=O)N[C@@H]([C@H]2O[C@H](SC)[C@H](O)[C@@H](O)[C@H]2O)[C@H](C)Cl)N(C)C1 [Clindamycin, clindamycin, reference compound]
MIC ([1]; S. aureus MP-549 msrA): 0.12 µg/mL (≈ 0.282 µM) | MIC ([1]; S. aureus HAV#032, MP-549, MSR(A)): 0.125 µg/mL (≈ 0.294 µM) | MIC ([2]; Acinetobacter baumannii, A. baumannii HAV#651, Clinical): 128 µg/mL (≈ 301 µM) | MIC ([2]; Acinetobacter baumannii, A. baumannii HAV#652 Clinical): 128 µg/mL (≈ 301 µM) | MIC ([2]; Acinetobacter baumannii, A. baumannii HAV#653, Clinical): 64 µg/mL (≈ 151 µM) | MIC ([2]; Acinetobacter baumannii, A. baumannii HAV#654, Clinical): 64 µg/mL (≈ 151 µM) | MIC ([2]; Acinetobacter baumannii, A. baumannii HAV#655, Clinical): 128 µg/mL (≈ 301 µM) | MIC ([2]; Acinetobacter baumannii, A. baumannii HAV#656, Clinical): 128 µg/mL (≈ 301 µM) | MIC ([2]; Acinetobacter baumannii, A. baumannii HAV#657, Clinical): 128 µg/mL (≈ 301 µM) | MIC ([2]; Acinetobacter baumannii, A. baumannii HAV#658, Clinical): 64 µg/mL (≈ 151 µM) | MIC ([2]; Acinetobacter baumannii, A. baumannii HAV#659, Clinical): 128 µg/mL (≈ 301 µM) | MIC ([2]; Acinetobacter baumannii, A. baumannii HAV#660, Clinical): > 128 µg/mL | MIC ([2]; Acinetobacter baumannii, A. baumannii HAV#661, Clinical): 64 µg/mL (≈ 151 µM) | MIC ([2]; Acinetobacter baumannii, A. baumannii HAV#662, Clinical): 64 µg/mL (≈ 151 µM) | MIC ([2]; Acinetobacter baumannii, A. baumannii HAV#663, Clinical): 32 µg/mL (≈ 75.3 µM) | MIC ([2]; Acinetobacter baumannii, A. baumannii HAV#664, Carbapenem R): 128 µg/mL (≈ 301 µM) | MIC ([2]; Enterococcus faecalis, E. faecalis HAV#602, Clincal): 16 µg/mL (≈ 37.6 µM) | MIC ([2]; Enterococcus faecalis, E. faecalis HAV#611, Line R & Vanco R): 128 µg/mL (≈ 301 µM) | MIC ([2]; Enterococcus faecalis, E. faecalis HAV#612, Line R): 8 µg/mL (≈ 18.8 µM) | MIC ([2]; Enterococcus faecalis, S. faecalis 5060, Line R & Vanco R): 128 µg/mL (≈ 301 µM) | MIC ([2]; Enterococcus faecalis, S. faecalis 5074, Line R): 8 µg/mL (≈ 18.8 µM) | MIC ([2]; Enterococcus faecalis, VRE, E. faecalis HAV#251, Clinical VRE): > 128 µg/mL | MIC ([2]; Enterococcus faecium, E. faecium HAV#317, Clinical): 8 µg/mL (≈ 18.8 µM) | MIC ([2]; Enterococcus faecium, E. faecium HAV#327, Clinical): 8 µg/mL (≈ 18.8 µM) | MIC ([2]; Enterococcus faecium, E. faecium HAV#604, Clinical): 8 µg/mL (≈ 18.8 µM) | MIC ([2]; Enterococcus faecium, VRE, E. faecium HAV#318, VanA): > 128 µg/mL | MIC ([2]; Enterococcus faecium, VRE, E. faecium HAV#320, Clinical): > 128 µg/mL | MIC ([2]; Enterococcus faecium, VRE, E. faecium HAV#326, Clinical): 8 µg/mL (≈ 18.8 µM) | MIC ([2]; Escherichia coli, E. coli HAV#501, Clinical): > 128 µg/mL | MIC ([2]; Escherichia coli, E. coli HAV#503, Clinical): 64 µg/mL (≈ 151 µM) | MIC ([2]; Escherichia coli, E. coli HAV#511, Clinical): 128 µg/mL (≈ 301 µM) | MIC ([2]; Escherichia coli, E. coli HAV#512, Clinical): > 128 µg/mL | MIC ([2]; Escherichia coli, E. coli HAV#513, Clinical): > 128 µg/mL | MIC ([2]; Escherichia coli, E. coli HAV#514, Clinical): 128 µg/mL (≈ 301 µM) | MIC ([2]; Escherichia coli, E. coli HAV#516, ESBL-producing): 128 µg/mL (≈ 301 µM) | MIC ([2]; Haemophilus influenzae, ATCC9007, H. influenzae HAV#376, ATCC-9007): 8 µg/mL (≈ 18.8 µM) | MIC ([2]; Klebsiella pneumoniae, K. pneumoniae HAV#402, FQ-R): > 128 µg/mL | MIC ([2]; Klebsiella pneumoniae, K. pneumoniae HAV#404, Clinical): 128 µg/mL (≈ 301 µM) | MIC ([2]; Klebsiella pneumoniae, K. pneumoniae HAV#405, Clinical): > 128 µg/mL | MIC ([2]; Klebsiella pneumoniae, K. pneumoniae HAV#406, Clinical): > 128 µg/mL | MIC ([2]; Klebsiella pneumoniae, K. pneumoniae HAV#407, Clinical): > 128 µg/mL | MIC ([2]; Klebsiella pneumoniae, K. pneumoniae HAV#408, Clinical): > 128 µg/mL | MIC ([2]; Klebsiella pneumoniae, K. pneumoniae HAV#409, ESBL-producing): > 128 µg/mL | MIC ([2]; Neisseria gonorrhoeae, N. gonorrhoeae HAV#701, Clinical): 2 µg/mL (≈ 4.71 µM) | MIC ([2]; Neisseria gonorrhoeae, N. gonorrhoeae HAV#702, Clinical): 0.5 µg/mL (≈ 1.18 µM) | MIC ([2]; Staphylococcus aureus, MRSA, S. aureus HAV#220, Line R): > 128 µg/mL | MIC ([2]; Staphylococcus aureus, MSSA, S. aureus HAV#219, Line R): > 128 µg/mL | MIC ([2]; Staphylococcus aureus, S. aureus HAV#051, mecA, norA, spcl, ermA, aad1, aac6′-aph2″): 0.06 µg/mL (≈ 0.141 µM) | MIC ([2]; Staphylococcus aureus, S. aureus HAV#052, mecA, norA, fosB, blaZ): 0.06 µg/mL (≈ 0.141 µM) | MIC ([2]; Staphylococcus aureus, S. aureus HAV#053 mecA, norA, fosB): 0.06 µg/mL (≈ 0.141 µM)
